Entries after “also recorded” stand apart in the source; their conditions may differ.
Assays:
control mice [1] = experiment: Radiant tail flick antinociception, control (not pretreated) mice; format: in vivo; conditions: controls; for ED50 (CI) i.c.v. / ED50 (CI) i.t.: tail flick
Protocol: (§1) Compounds were dissolved in 10% DMSO and then diluted to less than 1% DMSO in the test solutions. […] Compounds were administered in a 5-μl volume in conscious mice, either i.c.v. (Haley T J & McCormick W G, Br J Pharmacol Chemother, 1957, 12(1), 12-15) or i.t. (Hylden J L K & Wilcox G L, Eur. J. Pharmacol., 1980, 67(2-3), 313-316). Peak times were determined by comparing the percent maximal possible effect (% MPE) at 5, 10, 20 and 60 minutes after injection.
(§2) The tail flick assay is used first to test for antinociception as described by D'Amour and Smith (D'AMOUR FE & SMITH DL (1941) J. Pharmacol. Exp. Ther. 72(1):74-79) and modified by Dewey et al. (Dewey W L, Harris L S, Howes J F, & Nuite JA (1970) J. Pharmacol. Exp. Ther. 175(2):435-442). For the measurement of the tail-flick latency, mice are wrapped in a light cloth and held gently in one hand with the tail positioned in the apparatus (Tail Flick Analgesia Meter, Columbus Instruments, Columbus, Ohio) for radiant heat stimulus. The tail-flick response is elicited by applying radiant heat to the dorsal side of the tail. The intensity of the heat is set so that the mouse flicks its tail within 2 to 3 seconds. The test latency is measured before drug treatment (control) and again after the drug treatment (test) at the peak time of the compound; a 10 second maximum cut-off time is used to prevent damage to the tail. Antinociception is quantified according to the Harris L S & Pierson A K, J. Pharmacol. Exp. Ther., 1964, 143(2):141-148, as the percent maximal possible effect (% MPE), which is calculated as: % MPE=(Test−Control/10−Control)×100.
(§3) At least three groups of four to ten mice are used for each dose response curve. ED50 values with 95% confidence intervals (C.I.) are computed with GraphPad Prism 4 by using nonlinear regression methods.

LPS pretreated mice [2] = experiment: Radiant tail flick antinociception, LPS pretreated mice; format: in vivo; conditions: for % MPE / dose range of antinociception: LPS pretreated; for ED50 (CI) i.t. / ED50 (CI) i.c.v.: LPS pretreated (1 mg/kg 24 hours i.p.)
Protocol: as §1
The first group mice were pretreated with lipopolysaccaride (LPS, 1 mg/kg, i.p. from Escherichia coli 0111:B4; Sigma-Aldrich, St. Louis, Mo.) for 24 hours before testing for antinociception of compounds 2-6 (Seo Y-J, et al., Pharmacol., Biochem. Behav., 2008, 91, 121-127). This group was compared to a group without pretreatment.
as §2, §3

control mice [3] = experiment: Acute (24 hour) tolerance, tail flick, control mice; format: in vivo; conditions: controls
Protocol: (§4) Acute tolerance utilizing the radiant tail flick assay was measured by comparing the ED80-90 dose on day 1 to the same dose measured 24 hours later on the same mouse. For the LPS pretreated mice, no additional LPS was given to the mice for the acute tolerance test. […] However, the effect was less robust 72 hours after the initial LPS injection. Thus confirming that the acute tolerance test was accurate for the LPS pretreated mice.

LPS pretreated mice [4] = experiment: Acute (24 hour) tolerance, tail flick, LPS pretreated mice; format: in vivo; conditions: 24 hours
Protocol: as §4

[5] = tested on: C3H mice with bone cancer; experiment: von Frey mechanical hyperalgesia, bone cancer (fibrosarcoma) mice; format: in vivo; conditions: bone cancer, 250 pmol/mouse, day 3
Protocol: The mouse hind paw model of bone cancer was the third model of pain (Wacnik P W, et al., Pain Research & Management, 2000, 16, 615-637; and Wacnik P W, et al., J Neurosci, 2001, 21(23), 9355-9366). Cell Culture: National Collection of Type Cultures (NCTC) clone 2472 fibrosarcoma cells, originally derived from a connective tissue tumor in a C3H mouse, were obtained from the American Type Cell Culture Collection (Rockville, Md.). Cells were grown and maintained in accordance with standard cell culturing techniques. NCTC cells were grown to 80-90% confluence in 75 cm^2 flasks (Corning, Lowell, Mass.) in Dulbecco's Modification of Eagles Medium (Invitrogen, Carlsbad, Calif.) fortified with 10% Horse Serum and sodium bicarbonate. Cell cultures were housed in a water-jacketed incubator with 5% carbon dioxide at 37° C.
Cells were prepared for implantation by first pouring off the culture medium and washing with phosphate-buffered saline (PBS). Trypsin was added to flask and placed in incubator for 3 minutes. Upon detachment, cells were suspended in an ample amount of culture medium to terminate enzymatic activity and centrifuged for 10 min at 1000 g. Fibrosarcoma cells were re-suspended in a known amount of PBS for counting, quantified on a hemacytometer, pelleted and re-suspended in PBS. Fibrosarcoma cells were again re-suspended to a final concentration of 2×10^5 cells in 20 μl. Initially, animals were anesthetized in a plexi-glass chamber using 3% isoflurane in 3 L/min oxygen. Once each mouse was completely anesthetized, a maintenance rate of 2% isoflurane in 1.5 L/min oxygen was maintained during the short implantation procedure. Tumor cells were manually injected by boring into the calcaneus bone using a 29½ gauge needle connected to a sterile 0.3 ml insulin syringe as previously described (19). Following injection, mice were allowed to recover in cages on a heating pad. Animals showing any signs of dysfunction (e.g. problems with ambulation, lethargy or excessive bleeding) or distress where euthanized according to CO2 guidelines.
C3H mice were was placed under a clean glass cup on a wire mesh grid and allowed to acclimate for thirty minutes. Mechanical hypersensitivity was tested using a von Frey filament #3.61 (which produces a force of […]) to the plantar surface of both the left and right hind paw with enough force to cause it to bow slightly. Starting with the right hind paw, the number of positive responses out of a total of 10 applications was recorded followed by the left hind paw. Positive response was indicated by a sharp withdrawal or flinching behavior of the paw. Baseline von Frey measurements were obtained prior to treatment with CFA, tumor and saline controls. […] Subsequent measurements were taken at various time points after intrathecal (i.t.) injection of test compounds on days 3, 7, 10, 14, 17, and 21. % MPE was calculated ((Time-point value−Day# baseline)/(Day 0 baseline−day# baseline))*100 (Smeester B A, Al-Gizawiy M, & Beitz A J (2012) Evidence-Based Complementary and Alternative Medicine 2012:16). Animals with saline injection served as controls for tumor cell implantation and tumor-induced nociception. Behavioral assessments were conducted during the light cycle at approximately the same time each day. The investigator performing the von Frey testing was blinded to the animal and compound injected.
A well-established rodent hind paw model of bone cancer pain (Wacnik P W, et al., J Neurosci. 2001, 21(23), 9355-66) was to examine the effects of representative bivalent ligands on tumor-induced nociception. The inbred C3H/He line is syngeneic to the fibrosarcoma cells used in these experiments and allows these cells to grow tumors without rejection. Male C3H mice were used for all experiments. Animals were maintained on a 12 hour light/dark cycle with food and water ad libitum.
Cells were prepared for implantation by first pouring off the culture medium and washing with phosphate-buffered saline (PBS). […]

C3H/HeNCrlVr mice = conditions: intrathecal; spontaneous pain, mechanical allodynia, thermal hyperalgesia; cited from earlier work
live mice = experiment: Respiratory depression (Mouse Ox O2 saturation); format: in vivo; conditions: i.t.; dose 100 times the ED90
Protocol: Respiratory depression was measured in live mice using the Mouse Ox (small animal Oximeter from STARR Life Sciences Corp, Oakmont, Pa.). CollarClip™—(Un-Anesthetized Neck Sensor) for mice was used as the site for measuring the data. Day one of each experiment involved training the animals using a disposable CollarClip™. The collar was left on for approximately one hour. […] Mice were monitored for a 60-minute period, with measurements 10-20-30 and 60 minutes.
Respiratory depression was measured in live mice using the Mouse Ox (small animal Oximeter from STARR Life Sciences Corp, Oakmont, Pa.). CollarClip™ (Un-Anesthetized Neck Sensor) for mice was used as the site for measuring the data.
Day one of each experiment involved training the animals using a disposable CollarClip™. The collar was left on for approximately one hour.
Mice were monitored for a 60-minute period, with measurements 10-20-30 and 60 minutes.

Structure (SMILES)	ED50 (CI) i.c.v. (control mice [1]; i.c.v.) [pmol/mouse]	ED50 (CI) i.t. (control mice [1]; i.t.) [pmol/mouse]	ED50 (CI) i.t. (LPS pretreated mice [2]; i.t.) [pmol/mouse]	dose range of antinociception (LPS pretreated mice [2]; i.t.)	Tolerance (control mice [3]; i.c.v.)	Tolerance (control mice [3]; i.t.)	Tolerance (LPS pretreated mice [4]; i.t.)	ED50 (CI) i.c.v. (LPS pretreated mice [2]; i.c.v.) [pmol/mouse]	other results
COc1cccc(C#Cc2cccc(C)n2)c1 [Compound 2, 2-((3-methoxyphenyl)ethynyl)-6-methylpyridine, reference compound]	–	–	–	–	–	–	–	–	% MPE (control mice [1]; i.c.v., 250 pmol/mouse): 14.59 ± 4.63% MPE; % MPE (control mice [1]; i.t., 250 pmol/mouse): 13.27 ± 3.39% MPE; % MPE (LPS pretreated mice [2]; i.t., 250 pmol/mouse): 21.96 ± 10.50% MPE
Cc1cccc(C#Cc2cccc(OCCNC(=O)COCC(=O)N[C@H]3CC[C@@]4(O)C5Cc6ccc(O)c7c6[C@@]4(CCN5C)[C@H]3O7)c2)n1 [Compound 3, N-((4aS,7S,7aR,12bS)-4a,9-dihydroxy-3-methyl-2,3,4,4a,5,6,7,7a-octahydro-1H-4,12-methanobenzofuro[3,2-e]isoquinolin-7-yl)-2-(2-((2-(3-((6-methylpyridin-2-yl)ethynyl)phenoxy)ethyl)amino)-2-oxoethoxy)acetamide]	529.6	114.7	8.17	nmol range	Tolerance	No Tolerance	Tolerance was also observed; also recorded: exhibited tolerance	–	% MPE (LPS pretreated mice [2]; i.c.v., 500 pmol/mouse): 56.86 ± 8.95% MPE
Cc1cccc(C#Cc2cccc(OCCNC(=O)COCC(=O)NCCNC(=O)COCC(=O)N[C@H]3CC[C@@]4(O)C5Cc6ccc(O)c7c6[C@@]4(CCN5C)[C@H]3O7)c2)n1 [Compound 4a, N-((4aS,7S,7aR,12bS)-4a,9-dihydroxy-3-methyl-2,3,4,4a,5,6,7,7a-octahydro-1H-4,12-methanobenzofuro[3,2-e]isoquinolin-7-yl)-2-((14-(3-((6-methylpyridin-2-yl)ethynyl)phenoxy)-2,7,11-trioxo-9-oxa-3,6,12-triazatetradecyl)oxy)acetamide]	119.50	34.31	20.57	nmol range	Tolerance	Tolerance	created tolerance; also recorded: exhibited tolerance	80.85	Tolerance (LPS pretreated mice [4]; i.c.v.): Tolerance
Cc1cccc(C#Cc2cccc(OCCNC(=O)COCC(=O)NCCCNC(=O)COCC(=O)N[C@H]3CC[C@@]4(O)C5Cc6ccc(O)c7c6[C@@]4(CCN5C)[C@H]3O7)c2)n1 [Compound 4b, N-((4aS,7S,7aR,12bS)-4a,9-dihydroxy-3-methyl-2,3,4,4a,5,6,7,7a-octahydro-1H-4,12-methanobenzofuro[3,2-e]isoquinolin-7-yl)-2-((1-(3-((6-methylpyridin-2-yl)ethynyl)phenoxy)-4,8,14-trioxo-6-oxa-3,9,13-triazapentadecan-15-yl)oxy)acetamide]	113.3	36.08	10.08	nmol range	No Tolerance	No Tolerance	devoid of tolerance; also recorded: No Tolerance	64.36	Tolerance (LPS pretreated mice [4]; i.c.v.): No Tolerance
Cc1cccc(C#Cc2cccc(OCCNC(=O)COCC(=O)NCCCCCCCNC(=O)COCC(=O)N[C@H]3CC[C@@]4(O)C5Cc6ccc(O)c7c6[C@@]4(CCN5C)[C@H]3O7)c2)n1 [Compound 4d, N-((4aS,7S,7aR,12bS)-4a,9-dihydroxy-3-methyl-2,3,4,4a,5,6,7,7a-octahydro-1H-4,12-methanobenzofuro[3,2-e]isoquinolin-7-yl)-2-((1-(3-((6-methylpyridin-2-yl)ethynyl)phenoxy)-4,8,18-trioxo-6-oxa-3,9,17-triazanonadecan-19-yl)oxy)acetamide]	–	132.7	–	nmol range	–	No tolerance	devoid of tolerance; also recorded: No tolerance	411.9	% MPE (control mice [1]; i.c.v., 1000 pmol): 53.76 ± 16.36% MPE
CNC(=O)COCC(=O)NCCCNC(=O)COCC(=O)NCCOc1cccc(C#Cc2cccc(C)n2)c1 [Compound 6, N-methyl-2-(1-(3-((6-methylpyridin-2-yl)ethynyl)phenoxy)-4,8,14-trioxo-6-oxa-3,9,13-triazapentadecan-15-yloxy)acetamide]	–	–	548.7	–	–	–	No tolerance	–	% MPE (control mice [1]; i.c.v., 250 pmol/mouse): 24.87 ± 11.77% MPE; % MPE (control mice [1]; i.t., 2500 pmol/mouse): 26.13 ± 7.27% MPE; % MPE (LPS pretreated mice [2]; i.c.v., 2500 pmol/mouse): 38.83 ± 11.59% MPE; % MPE [5]: 17.59±18.24 % MPE
Cc1cccc(C#Cc2ccccc2)n1 [MPEP]	–	–	–	–	–	–	–	–	effect on bone cancer-evoked pain (C3H/HeNCrlVr mice): attenuated bone cancer-evoked spontaneous pain
CN1CC[C@]23c4c5ccc(O)c4O[C@H]2[C@@H](O)C=C[C@H]3[C@H]1C5 [Morphine, reference compound]	–	–	–	–	–	–	–	–	% of mice with O2 Saturation less than 90% (live mice): 50%
